From patent US9790198B2, “Substituted benzothiophenyl derivatives as GPR40 agonists for the treatment of type II diabetes” (Janssen Pharmaceutica NV, priority 2014, dated 2017)

Target: human GPR40 (Homo sapiens (Human), UniProt O14842)
Experiment: GPR40 Calcium Flux Assay
Type: cell-based
Settings: transfected HEK293 cells stably expressing human GPR40, mean data, read-out: hGPR40 Ca^2+ Assay EC50
Description: Compounds were tested in a calcium flux assay using transfected HEK293 cells stably expressing either human GPR40 or rat GPR40. Human GPR40 expressing cells were cultured in DMEM-High Glucose media supplemented with 10% fetal bovine serum, 1×L-Glutamine, 1× Penicillin/Streptomycin and 500 μg/mL G418. Rat GPR40 expressing cells were cultured in DMEM-High Glucose media supplemented with 10% fetal bovine serum and 1 μg/mL puromycin. Cells were plated into poly-D-lysine coated 384-well plates and cultured overnight in a 37° C. humidified tissue culture incubator under 5% CO2/90% O2 atmosphere. On the day of the experiment, the culture media was replaced with assay buffer (HBSS, 20 mM HEPES, 0.1% BSA) and the cells incubated at 37° C. for 1 h. Calcium-sensitive fluorescent dye (Fluo 8 No-Wash Calcium Dye, ABD Bioquest) was then added and the cells incubated for another 30 min at 37° C. followed by 15 min at room temperature while protected from the light. The cell plate and a plate of diluted compounds of Formula (I) were loaded into a fluorescent plate reader that added compounds onto the cells while measuring the fluorescence intensity of each well. The plate reader recorded fluorescence intensity at 1 second intervals for 8 min and provided the data for analysis in an Excel format. EC50 values were calculated using Prism (GraphPad) software.

Sequence of human GPR40 (O14842 whole entry): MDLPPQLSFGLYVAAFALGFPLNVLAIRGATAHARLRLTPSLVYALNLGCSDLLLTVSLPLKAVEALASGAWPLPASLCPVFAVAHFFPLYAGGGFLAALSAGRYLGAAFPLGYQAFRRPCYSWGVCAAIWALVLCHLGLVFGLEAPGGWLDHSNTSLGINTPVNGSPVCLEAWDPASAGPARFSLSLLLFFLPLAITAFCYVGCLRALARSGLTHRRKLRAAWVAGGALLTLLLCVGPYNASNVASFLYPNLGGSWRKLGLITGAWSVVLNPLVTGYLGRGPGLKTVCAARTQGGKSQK

## Cc1ccccc1-c1csc2ccc(COc3ccc([C@]4(CC(=O)O)C[C@@H](O)C4)cc3)cc12 [Cpd 31, 2-((1r,3r)-3-Hydroxy-1-(4-((3-(2-methylphenyl)benzo[b]thiophen-5-yl)methoxy)phenyl)cyclobutyl)acetic acid]
  EC50: 14 nM
